Assay results published in ChEMBL document CHEMBL6078614, “Privileged small molecules against neglected tropical diseases: A perspective from structure activity relationships” (Eur J Med Chem, 2024).
≈ marks a conversion by molar mass, not a printed value.

Columns and labels:
Leishmania braziliensis = assay: Antileishmanial activity against Leishmania braziliensis; type: functional, organism-based
Leishmania donovani [1] = assay: Antileishmanial activity against amastigote form of Leishmania donovani infected in BALB/c mouse assessed as inhibition of parasite growth in spleen at 25 mg/kg, po measured after 5 days by geimsa staining based analysis relative to control; type: functional; parameters: scale not given: the % may be the effect or the level left; settings: time 5 day
[2] = Inhibition of Entamoeba histolytica O-acetylserine sulfhydrylase
Leishmania major [3] = assay: Antileishmanial activity against Leishmania major amastigotes assessed as inhibition of parasite growth incubated for 48 hrs by alamar blue reagent based ELISA; type: functional, organism-based
Leishmania major [4] = assay: Antileishmanial activity against Leishmania major promastigotes assessed as inhibition of parasite growth; type: functional, organism-based
Leishmania mexicana [5] = assay: Antileishmanial activity against Leishmania mexicana promastigotes assessed as reduction in parasite growth by alamar-blue staining based analysis; type: functional, organism-based
Entamoeba histolytica = assay: Antiparasitic activity against Entamoeba histolytica; type: functional, organism-based
Leishmania chagasi = assay: Antileishmanial activity against Leishmania chagasi; type: functional, organism-based
Leishmania infantum = assay: Inhibition of Leishmania infantum Arginase expressed in Escherichia coli BL21 (DE3) at 50 uM by enzymatic assay relative to control
Trypanosoma cruzi [6] = assay: Antitrypanosomal activity against Trypanosoma cruzi Tulahuen amastigotes; type: functional, organism-based
Trypanosoma brucei = assay: Antitrypanosomal activity against Trypanosoma brucei; type: functional, organism-based
Trypanosoma cruzi [7] = assay: Antitrypanosomal activity against trypomastigote form of Trypanosoma cruzi Y assessed as inhibition of parasite viability incubated for 24 hrs by light microscopy; type: functional, organism-based
L929 = assay: Cytotoxicity against mouse L929 cells assessed as reduction in cell viability; type: functional
Leishmania major [8] = assay: Antileishmanial activity against Leishmania major promastigotes assessed as inhibition of parasite growth incubated for 48 hrs by resazurin dye based assay; type: functional, organism-based
Trypanosoma cruzi [9] = assay: Antitrypanosomal activity against trypomastigote form of Trypanosoma cruzi Y assessed as inhibition of parasite viability; type: functional, organism-based
Leishmania major [10] = assay: Antileishmanial activity against Leishmania major; type: functional, organism-based
HeLa = assay: Cytotoxicity against human HeLa cells assessed as reduction in cell viability incubated for 24 hrs by MTT assay; type: functional
Leishmania amazonensis = assay: Antileishmanial activity against Leishmania amazonensis amastigotes assessed as parasite growth inhibition; type: functional, organism-based
Phosphodiesterase 4 = Phosphodiesterase 4 (Homo sapiens, UniProt P27815+Q08499+Q07343+Q08493); assay: Inhibition of PDE4 (unknown origin); type: protein assay
Leishmania major [11] = assay: Antileishmanial activity against Leishmania major IR-173 promastigotes assessed as inhibition of parasite growth incubated for 48 hrs by resazurin dye based assay; type: functional, organism-based; settings: IR-173, 48 h
Leishmania major [12] = assay: Antileishmanial activity against Leishmania major IR-173 promastigotes assessed as inhibition of parasite growth incubated for 24 hrs by resazurin dye based assay; type: functional, organism-based; settings: IR-173, 24 h
Leishmania mexicana [13] = assay: Antileishmanial activity against Leishmania mexicana promastigotes
Trypanosoma cruzi [14] = assay: Antiprotozoal activity against Trypanosoma cruzi epimastigotes assessed as reduction in parasite growth; type: functional, organism-based
[15] = tested on: Trypanosoma brucei rhodesiense; assay: Antitrypanosomal activity against Trypanosoma brucei rhodesiense; type: functional, organism-based
Leishmania donovani [16] = assay: Antileishmanial activity against Leishmania donovani amastigotes infected in J774 macrophage assessed as inhibition of parasite growth incubated for 48 hrs by luciferase assay; type: functional, organism-based; settings: J774, 48 h
Leishmania donovani [17] = assay: Antileishmanial activity against Leishmania donovani promastigotes measured after 48 hrs by MTT assay; type: functional, organism-based
HepG2 = assay: Cytotoxicity against human HepG2 cells assessed as reduction in cell viability by MTT assay; type: functional

CN1CCN(c2nn3c(-c4cccc([N+](=O)[O-])c4)nnc3c3ccccc23)CC1
IC50 (Leishmania braziliensis): 9.37 µM

O=C(Cn1nnc2ccccc21)NNCc1ccccc1Cl
Activity (Leishmania donovani [1]): 89.4%

O=[N+]([O-])c1ccc2nc([S+]([O-])Cc3ccccn3)[nH]c2c1 (centres undefined)
IC50 ([2]; read-out: IC50): 11 µM

NNS(=O)(=O)c1ccc([N+](=O)[O-])o1
IC50 (Leishmania major [3]): 5.75 µM
IC50 (Leishmania major [4]): 1.85 µM

NNc1nc(-c2ccc(F)cc2)nc2ccccc12
IC50 (Leishmania braziliensis): 7.41 µM

c1ccc(-c2cnc3c(n2)CCCC3)cc1
IC50 (Leishmania mexicana [5]): 39.8 µM

O=c1[nH]c2cc(Cl)c(Cl)cc2c(=O)n1-c1ccccc1
IC50 (Leishmania mexicana [5]): 6.05 µM

CC(C)Cc1ccc(C(C)C(=O)O)cc1 (centres undefined) [IBUPROFEN]
IC50 (Entamoeba histolytica): 0.172 µM

N=C(N)N/N=C/c1cccc(Cl)c1Cl
IC50 (Leishmania chagasi): 7.27 µM

O=C(NCCNc1nccc(-c2c(-c3cccc(O)c3)nc3sccn23)n1)c1ccc(N2CCOCC2)c(C(F)(F)F)c1
inhibition (Leishmania infantum): 67%
IC50 (Leishmania chagasi): 32.4 µM

Cc1nc(C)c(C(=O)Nc2ccc(F)c(-c3nc4ncc(-c5ccccc5Cl)cn4n3)c2)o1
EC50 (Trypanosoma cruzi [6]): 0.02 µM

O=C(Cn1ccnc1[N+](=O)[O-])NCc1ccccc1 [BENZNIDAZOLE]
EC50 (Trypanosoma brucei): 1.94 µM

Cn1c(/C=C/C(=O)NO)ccc1/C=C/C(=O)c1cccc(Cl)c1
EC50 (Trypanosoma cruzi [7]): 7 µM
CC50 (L929): 40 µM

C[C@@H]1[C@H](O)[C@@H](C)/C=C/C=C/C=C/C=C/C=C/C=C/C=C/[C@H](O[C@@H]2O[C@H](C)[C@@H](O)[C@H](N)[C@@H]2O)C[C@@H]2O[C@](O)(C[C@@H](O)C[C@@H](O)[C@H](O)CC[C@@H](O)C[C@@H](O)CC(=O)O[C@H]1C)C[C@H](O)[C@H]2C(=O)O [AMPHOTERICIN B]
IC50 (Leishmania major [8]): 0.19 mg/L (≈ 0.206 µM)

Clc1ccc(-n2cc(C3=NCCS3)cn2)c(Cl)c1
IC50 (Trypanosoma cruzi [9]): 0.4 µM

O=C(Nc1cc2nc(-c3cccc(C(F)(F)F)c3)cn2cn1)N1CC[C@H](F)C1
EC50 (Trypanosoma cruzi [6]): 0.08 µM

CCCCCCCCCc1cn(CCN2CCN(C(=O)c3c(C)nc4cc(C)ccn34)CC2)nn1
IC50 (Leishmania major [3]): 15.1 µM

CCc1ccc(-n2cc(CCN3CCN(C(=O)c4c(C)nc5cc(C)ccn45)CC3)nn2)cc1
IC50 (Leishmania major [3]): 15.1 µM

N=C(N)N/N=C/c1ccc2ccccc2n1
IC50 (Leishmania chagasi): 0.6 µM

Cc1ccc(C(=O)NC(=S)NCc2ccco2)cc1
IC50 (Leishmania major [10]): 38.5 mg/L

NCCCC(N)(C(=O)O)C(F)F (centres undefined) [EFLORNITHINE]
EC50 (Trypanosoma brucei): 13 µM

Cc1ccn2c(C(=O)N3CCN(CCc4cn(-c5cccc(Cl)c5)nn4)CC3)c(C)nc2c1
CC50 (HeLa): 62.7 µM
IC50 (Leishmania major [3]): 15.1 µM

O=C1c2ccccc2C(=O)N1CCn1cc(-c2ccccc2)nn1
IC50 (Leishmania amazonensis): 125 µM

CC(C)(Oc1ccc(Cl)cc1)C(=O)O [CLOFIBRIC ACID]
IC50 (Entamoeba histolytica): 0.145 µM

Cc1ncc([N+](=O)[O-])n1CCOC(=O)NC1CCCCC1
IC50 (Entamoeba histolytica): 0.46 µM

NNc1nc(-c2ccccc2Cl)nc2ccccc12
IC50 (Leishmania braziliensis): 8.43 µM

Cc1c(OCC(F)(F)F)ccnc1C[S+]([O-])c1nc2ccc([N+](=O)[O-])cc2[nH]1 (centres undefined)
IC50 ([2]; read-out: IC50): 15 µM

COc1ccc(C2=NN(C(C)C)C(=O)C2(C)C)cc1-c1ccncc1
pIC50 (Phosphodiesterase 4): 5.8

Clc1ccc(-n2cc(C3=NCCS3)cn2)cc1Cl
IC50 (Trypanosoma cruzi [9]): 1.9 µM

O=[N+]([O-])c1ccc(-c2nnc(N3CCC(O)CC3)s2)o1
IC50 (Leishmania major [10]): 68.9 µM

COc1cccc(-c2nc3sccn3c2-c2ccnc(NCCNC(=O)Nc3cccc(C(F)(F)F)c3)n2)c1
inhibition (Leishmania infantum): 69.2%
IC50 (Leishmania chagasi): 30 µM

Cn1ccnc1-c1nnc(-c2ccc([N+](=O)[O-])s2)s1
IC50 (Leishmania major [11]): 7.1 mg/L (≈ 24.2 µM)
IC50 (Leishmania major [12]): 11.2 mg/L (≈ 38.2 µM)

COc1ccc(C2=NN(C(C)C)C(=O)C2(C)C)cc1OCc1ccccc1
pIC50 (Phosphodiesterase 4): 6.8

Cc1ccn2c(C(=O)N3CCN(CCn4cc(-c5ccc(C(C)(C)C)cc5)nn4)CC3)c(C)nc2c1
IC50 (Leishmania major [3]): 15.1 µM

Cc1ccn2c(C(=O)N3CCN(CCc4cn(-c5ccc(Br)cc5)nn4)CC3)c(C)nc2c1
IC50 (Leishmania major [3]): 15.1 µM

CC1CS(=O)(=O)CCN1/N=C/c1ccc([N+](=O)[O-])o1 (centres undefined) [NIFURTIMOX]
IC50 (Leishmania mexicana [13]): 9.32 µM

NC(=O)Nc1cc2nc(-c3cccc(C(F)(F)F)c3)cn2cn1
EC50 (Trypanosoma cruzi [6]): > 20 µM

O=[N+]([O-])c1ccc(-c2nnc(NCCCO)s2)o1
IC50 (Leishmania major [10]): 18 µM

COc1ccc(C(=O)NC(=S)Nc2nc(-c3ccccc3)c(C)s2)cc1
IC50 (Leishmania major [10]): 38.5 mg/L

c1ccc(-c2cnc3ccccc3n2)cc1
IC50 (Leishmania mexicana [5]): 12.5 µM

O=C(Nc1ccc2c(c1)CN(c1ccc(Br)cc1)C2=O)N1CCN(c2ccc(F)cc2)CC1
IC50 (Trypanosoma cruzi [14]): 0.05 µM

Brc1ccc(-n2cc(C3=NCCS3)cn2)cc1
IC50 (Trypanosoma cruzi [9]): 2.1 µM

CN1C(=N)N/C(=C/c2c[nH]c3cc(Br)ccc23)C1=O
IC50 (Trypanosoma cruzi [9]): 62 µM

COc1ccc(/C=N/NC(N)=S)cc1
IC50 (Leishmania chagasi): 1.6 µM

COc1ccc2cc([C@H](C)C(=O)O)ccc2c1 [NAPROXEN]
IC50 (Entamoeba histolytica): 0.14 µM

COC(=O)c1nc(NC(=O)c2cc(NC(=O)c3nc(NC(=O)OC(C)(C)C)sc3C(C)C)cn2C)sc1C(C)C
EC50 [15]: 11.8 µM

N=C(S)N/N=C/c1ccc(C(F)(F)F)cc1
IC50 (Leishmania chagasi): 3.2 µM

COc1ccc2c(c1)c(CC(=O)O)c(C)n2C(=O)c1ccc(Cl)cc1 [INDOMETHACIN]
IC50 (Entamoeba histolytica): 0.22 µM

O=C(Nc1nc2cc(Cl)ccc2o1)C(c1ccccc1)c1ccccc1
IC50 (Leishmania donovani [16]): 9.1 µM

Cc1ccc(N2Cc3cc(NC(=O)N4CCN(c5cccc(C(F)(F)F)c5)CC4)ccc3C2=O)cc1
IC50 (Trypanosoma cruzi [14]): 0.04 µM

c1cncc(Nc2nccc(-c3cnn4ncccc34)n2)c1
EC50 (Trypanosoma cruzi [6]): 7.7 µM

CC(C)(C)Nc1c(-c2cc3ccccc3n3nnnc23)nc2sc(C#N)cn12
IC50 [2]: 140 mg/L

COc1ccc2c(-c3ccnc(Nc4cccc(C#N)c4)n3)c(CO)nn2n1
EC50 (Trypanosoma cruzi [6]): 7.2 µM

COc1ccc2nc(-c3ccccc3)cnc2c1
IC50 (Leishmania mexicana [5]): 50.9 µM

COc1ccc(C2=NN(C(C)C)C(=O)C2(C)C)cc1-c1cccnc1
pIC50 (Phosphodiesterase 4): 6.4

N=C(N)N/N=C/c1ccccc1-c1ccccc1
IC50 (Leishmania chagasi): 4.97 µM

Cc1cccnc1-n1cccc1C(=O)c1ccc(F)cc1
IC50 (Leishmania donovani [17]): 7.78 µM
IC50 (Leishmania amazonensis): 16.9 µM

Cc1sc(NC(=S)NC(=O)c2cccc(Cl)c2)nc1-c1ccccc1
IC50 (Leishmania major [10]): 38.5 mg/L

O=C(Nc1cc2nc(-c3ccc(F)c(F)c3)cn2cn1)N1CC[C@H](F)C1
EC50 (Trypanosoma cruzi [6]): 0.73 µM

O=[N+]([O-])c1ccc(-c2nnc(N3CCC(O)CC3)s2)s1
IC50 (Leishmania major [10]): 27 µM

N/C(S)=N/N=C/c1cccc(Cl)c1Cl
IC50 (Leishmania chagasi): 2.2 µM

COc1cc(/C=C/C(=O)CC(=O)/C=C/c2ccc(O)c(OC)c2)ccc1O [CURCUMIN]
EC50 [15]: 4.85 µM

CCCCCCCCCCCCCCCCOP(=O)([O-])OCC[N+](C)(C)C [MILTEFOSINE]
Activity (Leishmania donovani [1]): >98%

CC(C)c1ccc(S(=O)(=O)/N=N/Cc2ccc([N+](=O)[O-])o2)cc1
IC50 (Leishmania major [3]): 4.71 µM

O=[N+]([O-])c1c(CS(=O)(=O)c2ccccc2)nc2c(Sc3ccc(Cl)cc3)cc(Cl)cn12
CC50 (HepG2): > 100 µM
IC50 (Leishmania donovani [16]): 1.3 µM

O=C(O)Cc1ccccc1Nc1c(Cl)cccc1Cl [DICLOFENAC]
IC50 (Entamoeba histolytica): 0.22 µM
